Data published in publication PMC11124822, “Discovery and Anticancer Screening of Novel Oxindole-Based Derivative Bearing Pyridyl Group as Potent and Selective Dual FLT3/CDK2 Kinase Inhibitor” (Pharmaceuticals, 2024).

Legend:
CCRF-CEM = assay: NCI-60 antiproliferative screen (SRB); format: cell-based, human; conditions: Homo sapiens; 10 µM single dose, 48 h; CCRF-CEM (Leukemia); read-out: Growth inhibition (%)
EKVX = assay: NCI-60 antiproliferative screen (SRB); format: cell-based, human; conditions: Homo sapiens; 10 µM single dose, 48 h; EKVX (NSCLC); read-out: Growth inhibition (%)
NCI-H226 = assay: NCI-60 antiproliferative screen (SRB); format: cell-based, human; conditions: Homo sapiens; 10 µM single dose, 48 h; NCI-H226 (NSCLC); read-out: Growth inhibition (%)
NCI-H23 = assay: NCI-60 antiproliferative screen (SRB); format: cell-based, human; conditions: Homo sapiens; 10 µM single dose, 48 h; NCI-H23 (NSCLC); read-out: Growth inhibition (%)
NCI-H460 = assay: NCI-60 antiproliferative screen (SRB); format: cell-based, human; conditions: Homo sapiens; 10 µM single dose, 48 h; NCI-H460 (NSCLC); read-out: Growth inhibition (%)
NCI-H522 = assay: NCI-60 antiproliferative screen (SRB); format: cell-based, human; conditions: Homo sapiens; 10 µM single dose, 48 h; NCI-H522 (NSCLC); read-out: Growth inhibition (%)
HCT-15 = assay: NCI-60 antiproliferative screen (SRB); format: cell-based, human; conditions: Homo sapiens; 10 µM single dose, 48 h; HCT-15 (Colon); read-out: Growth inhibition (%)
SF-295 = assay: NCI-60 antiproliferative screen (SRB); format: cell-based, human; conditions: Homo sapiens; 10 µM single dose, 48 h; SF-295 (CNS); read-out: Growth inhibition (%)
SF-539 = assay: NCI-60 antiproliferative screen (SRB); format: cell-based, human; conditions: Homo sapiens; 10 µM single dose, 48 h; SF-539 (CNS); read-out: Growth inhibition (%)
LOX IMVI = assay: NCI-60 antiproliferative screen (SRB); format: cell-based, human; conditions: Homo sapiens; 10 µM single dose, 48 h; LOX IMVI (Melanoma); read-out: Growth inhibition (%)
M14 = assay: NCI-60 antiproliferative screen (SRB); format: cell-based, human; conditions: Homo sapiens; 10 µM single dose, 48 h; M14 (Melanoma); read-out: Growth inhibition (%)
MDA-MB-435 = assay: NCI-60 antiproliferative screen (SRB); format: cell-based, human; conditions: Homo sapiens; 10 µM single dose, 48 h; MDA-MB-435 (Melanoma); read-out: Growth inhibition (%)
SK-MEL-28 = assay: NCI-60 antiproliferative screen (SRB); format: cell-based, human; conditions: Homo sapiens; 10 µM single dose, 48 h; SK-MEL-28 (Melanoma); read-out: Growth inhibition (%)
UACC-257 = assay: NCI-60 antiproliferative screen (SRB); format: cell-based, human; conditions: Homo sapiens; 10 µM single dose, 48 h; UACC-257 (Melanoma); read-out: Growth inhibition (%)
UACC-62 = assay: NCI-60 antiproliferative screen (SRB); format: cell-based, human; conditions: Homo sapiens; 10 µM single dose, 48 h; UACC-62 (Melanoma); read-out: Growth inhibition (%)
OVCAR-5 = assay: NCI-60 antiproliferative screen (SRB); format: cell-based, human; conditions: Homo sapiens; 10 µM single dose, 48 h; OVCAR-5 (Ovarian); read-out: Growth inhibition (%)
OVCAR-8 = assay: NCI-60 antiproliferative screen (SRB); format: cell-based, human; conditions: Homo sapiens; 10 µM single dose, 48 h; OVCAR-8 (Ovarian); read-out: Growth inhibition (%)
NCI/ADR-RES = assay: NCI-60 antiproliferative screen (SRB); format: cell-based, human; conditions: Homo sapiens; 10 µM single dose, 48 h; NCI/ADR-RES (Ovarian); read-out: Growth inhibition (%)
SK-OV-3 = assay: NCI-60 antiproliferative screen (SRB); format: cell-based, human; conditions: Homo sapiens; 10 µM single dose, 48 h; SK-OV-3 (Ovarian); read-out: Growth inhibition (%)
786-0 = assay: NCI-60 antiproliferative screen (SRB); format: cell-based, human; conditions: Homo sapiens; 10 µM single dose, 48 h; 786-0 (Renal); read-out: Growth inhibition (%)
ACHN = assay: NCI-60 antiproliferative screen (SRB); format: cell-based, human; conditions: Homo sapiens; 10 µM single dose, 48 h; ACHN (Renal); read-out: Growth inhibition (%)
CAKI-1 = assay: NCI-60 antiproliferative screen (SRB); format: cell-based, human; conditions: Homo sapiens; 10 µM single dose, 48 h; CAKI-1 (Renal); read-out: Growth inhibition (%)
SN12C = assay: NCI-60 antiproliferative screen (SRB); format: cell-based, human; conditions: Homo sapiens; 10 µM single dose, 48 h; SN12C (Renal); read-out: Growth inhibition (%)
DU-145 = assay: NCI-60 antiproliferative screen (SRB); format: cell-based, human; conditions: Homo sapiens; 10 µM single dose, 48 h; DU-145 (Prostate); read-out: Growth inhibition (%)
HS 578T = assay: NCI-60 antiproliferative screen (SRB); format: cell-based, human; conditions: Homo sapiens; 10 µM single dose, 48 h; HS 578T (Breast); read-out: Growth inhibition (%)
BT-549 = assay: NCI-60 antiproliferative screen (SRB); format: cell-based, human; conditions: Homo sapiens; 10 µM single dose, 48 h; BT-549 (Breast); read-out: Growth inhibition (%)
[1] = tested on: NCI-60 human cancer cell lines; assay: NCI-60 screen, full panel summary; format: cell-based; conditions: 10 µM single dose; for Mean Growth Percent: all NCI-60 cell lines
Experimental: In a comprehensive test, compounds were assayed at a single dose concentration (10^−5 M) in the full panel of NCI-60 cancer cell lines.

OVCAR-4 = assay: NCI-60 antiproliferative screen (SRB); conditions: Homo sapiens, OVCAR-4, 48 h, read-out: Growth inhibition (%)
IGROV1 = assay: NCI-60 antiproliferative screen (SRB); format: cell-based, human; conditions: Homo sapiens, IGROV-1; 10 µM single dose, 48 h; IGROV1 (Ovarian); read-out: Growth inhibition (%)

Compound | inhibition at 10 µM (CCRF-CEM) [%] | inhibition at 10 µM (EKVX) [%] | inhibition at 10 µM (NCI-H226) [%] | inhibition at 10 µM (NCI-H23) [%] | inhibition at 10 µM (NCI-H460) [%] | inhibition at 10 µM (NCI-H522) [%] | inhibition at 10 µM (HCT-15) [%] | inhibition at 10 µM (SF-295) [%] | inhibition at 10 µM (SF-539) [%] | inhibition at 10 µM (LOX IMVI) [%] | inhibition at 10 µM (M14) [%] | inhibition at 10 µM (MDA-MB-435) [%] | inhibition at 10 µM (SK-MEL-28) [%] | inhibition at 10 µM (UACC-257) [%] | inhibition at 10 µM (UACC-62) [%] | inhibition at 10 µM (OVCAR-5) [%] | inhibition at 10 µM (OVCAR-8) [%] | inhibition at 10 µM (NCI/ADR-RES) [%] | inhibition at 10 µM (SK-OV-3) [%] | inhibition at 10 µM (786-0) [%] | further results
O=C1Nc2ccc(F)cc2C1=Cc1ccc(OCc2cccnc2)cc1 (mixture of isomers) [Compound 5j, (E/Z)-5-Fluoro-3-[4-(pyridin-3-ylmethoxy)benzylidene]indolin-2-one] | 75 | 41 | 55.6 | 58.2 | 53.9 | 89.5 | 84.8 | 54.8 | 63.3 | 76.9 | 67.1 | 98.3 | 28.2 | 39.8 | 57.8 | -11.2 | 65.1 | 85.6 | 13.2 | 24.2 | inhibition at 10 µM (ACHN): 51.8%; inhibition at 10 µM (CAKI-1): 67.6%; inhibition at 10 µM (SN12C): 46.1%; inhibition at 10 µM (DU-145): 46.1%; inhibition at 10 µM (HS 578T): 37.4%; inhibition at 10 µM (BT-549): 65.7%; Positive Cytostatic Effect (cell lines with percent growth from 0 to 50 / total number of cell lines) [1]: 32/56; Positive Cytotoxic Effect (cell lines with percent growth of <0 / total number of cell lines) [1]: 1/56; Sensitive/Total Cell Lines [1]: 33/56; The Most Sensitive Cell Line [1]: SK-MEL-5; number of cell lines with cytostatic effects [1]: 32; number of cell lines with cytotoxic effects [1]: 1; Mean Growth Percent [1]: 53.95; inhibition at 10 µM (OVCAR-4): 47.2%
O=C1Nc2cc(Cl)ccc2C1=Cc1ccc(OCc2ccncc2)cc1 (mixture of isomers) [Compound 5p, (E/Z)-6-Chloro-3-[4-(pyridin-4-ylmethoxy)benzylidene]indolin-2-one] | 34.4 | 45.1 | 49.5 | 57.2 | 36.8 | 45.2 | 76.9 | 32.2 | 94.2 | 65.2 | 16.9 | 29.2 | -10.9 | 17.2 | 34.7 | -29.4 | 61.3 | 59.3 | 15.5 | 23.9 | inhibition at 10 µM (IGROV1): 67.9%; inhibition at 10 µM (ACHN): 34%; inhibition at 10 µM (CAKI-1): 52.8%; inhibition at 10 µM (SN12C): 34.6%; inhibition at 10 µM (DU-145): 29.4%; inhibition at 10 µM (HS 578T): 35%; Positive Cytostatic Effect (cell lines with percent growth from 0 to 50 / total number of cell lines) [1]: 21/59; Positive Cytotoxic Effect (cell lines with percent growth of <0 / total number of cell lines) [1]: 0/59; Sensitive/Total Cell Lines [1]: 21/59; The Most Sensitive Cell Line [1]: SF-539; number of cell lines with cytostatic effects [1]: 21; Mean Growth Percent [1]: 41.27; inhibition at 10 µM (OVCAR-4): 31.8%
